Converted amounts (≈) assume the structure as drawn.
Tests used:
[1] = target: T1, Aurora A (Homo sapiens, UniProt O14965); assay: Aurora A enzyme assay (time-resolved fluorescence); type: biochemical; conditions: 1 mM ATP
T1 sequence (O14965 1-403): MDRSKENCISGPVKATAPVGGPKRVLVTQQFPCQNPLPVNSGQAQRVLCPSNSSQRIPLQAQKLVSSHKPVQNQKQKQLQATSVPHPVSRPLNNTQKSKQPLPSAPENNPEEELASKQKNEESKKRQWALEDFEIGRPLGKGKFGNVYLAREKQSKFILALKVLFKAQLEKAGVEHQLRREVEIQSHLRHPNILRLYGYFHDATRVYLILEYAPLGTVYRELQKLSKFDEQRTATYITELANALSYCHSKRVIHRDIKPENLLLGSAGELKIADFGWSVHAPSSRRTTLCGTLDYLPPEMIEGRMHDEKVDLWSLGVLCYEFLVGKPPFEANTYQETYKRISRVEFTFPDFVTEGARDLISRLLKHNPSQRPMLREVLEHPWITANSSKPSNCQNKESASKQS
Description: After 1 hour, the reaction was stopped with EDTA and anti-phospho-STK antibody Europium Cryptate (Upstate) and SA-XL665 (Upstate) were added to detect the phosphopeptide. The amount of phosphorylation was determined by the time-resolved fluorescence ratio of signals at 665 nm and 615 nm. The IC50s were calculated by an exponential fit of the inhibition values with the inhibitor concentrations using Assay Explorer software.

[2] = Determination of Thermodynamic Solubility; type: physicochemical; conditions: PEG 300, 25 °C, organic solvent or mixture, thermodynamic from solid, PEG 300, Example 2 at 25° C., Example 1 at ambient temperature, read-out: Solubility (PEG300)
Description: Aqueous pH 7.4 and PEG 300 samples were tested at 25° C. Excess amount of the bulk drug was weighed out and mixed with an aliquot of target media in a clear glass vial (n=3/solvent). The vial was capped, wrapped with aluminum foil, and tumbled in a 25° C. water bath. When equilibration was completed, the samples were removed from the water bath and the final pH was measured, if applicable. The samples were centrifuged at 25° C. at 3000 rpm for 20 minutes. The supernatant was filtered through 4 mm 0.45 μm PTFE syringe filters. The filtrate was assayed after appropriate dilution (no dilution required for aqueous samples). The concentration of the sample was calculated against a calibration curve for the compound.
Solubility in pH 7.4 buffer was carried out as described above, except samples were not centrifuged before filtration. All other experimental steps were the same. PEG 300 and PEG 400 solubility were done at ambient temperature. Excess amount of the bulk drug was weighed out and mixed with an aliquot of target media in a clear glass vial with a small stir bar (n=3). The vials were placed on the stirrer at ˜500 rpm and allowed to equilibrate over the weekend. Samples were filtered through 13 mm 0.45 μm GHP syringe filters. The filtrate was assayed after appropriate dilutions, and concentrations determined against a calibration curve for the compound.

[3] = target: T2, FLT3 (Homo sapiens, UniProt P36888); assay: HTRF in vitro kinase assay, FLT3; type: biochemical; conditions: 1 mM ATP
T2 construct: FLT3 Q569- S993; M-His(6) (N)
T2 sequence (P36888 569-993): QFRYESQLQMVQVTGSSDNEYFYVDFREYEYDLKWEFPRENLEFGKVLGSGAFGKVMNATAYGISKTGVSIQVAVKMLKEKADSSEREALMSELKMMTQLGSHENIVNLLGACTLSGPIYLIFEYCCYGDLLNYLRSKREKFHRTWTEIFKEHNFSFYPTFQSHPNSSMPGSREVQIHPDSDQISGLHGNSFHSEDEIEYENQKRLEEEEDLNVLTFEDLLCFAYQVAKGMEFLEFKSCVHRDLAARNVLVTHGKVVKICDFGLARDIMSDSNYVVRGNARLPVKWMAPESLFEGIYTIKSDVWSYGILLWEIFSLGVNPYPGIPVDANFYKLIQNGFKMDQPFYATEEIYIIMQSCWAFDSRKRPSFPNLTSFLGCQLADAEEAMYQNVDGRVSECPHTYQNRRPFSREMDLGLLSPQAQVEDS
Description: (§1) To determine the activity of the various kinases, a homogenous time-resolved fluorescence (HTRF) in vitro kinase assay was used. (Mathis, G., HTRF(R) Technology. J Biomol Screen, 1999. 4(6): p. 309-314; Alfred J. Kolb, Paul V. Kaplita, David J. Hayes, Young-Whan Park, Christine Pernell, John S. Major and Gerard Mathis, Drug Discovery Today, 1998, 3, 333-342.)
(§2) For example for KDR, cKIT, FLT1, CSF1R and FTL3, purified enzyme was mixed with 0.5 μM N-biotinylated substrate (Biotin-Ahx-[…]-amide (SEQ. ID. 1)), various concentrations of inhibitor in reaction buffer (50 mM HEPES, pH 7.1, 10 mM MgCl2, 2 mM MnCl2, 0.1% BSA and 1 mM DTT, 40 μL final volume), ATP (1 mM final conc.) in a black 384-well plate. […] The quenched reaction was allowed to stand at room temperature for 3 hours and was then read in a time-resolved fluorescence detector (InVision, Perkin-Elmer) at 620 nm and 665 nm sequentially with excitation. The ratio between the signal of 620 nm and 665 nm was used in the calculation of the IC50.

[4] = target: T3, cKIT (Homo sapiens, UniProt P10721); assay: HTRF in vitro kinase assay, cKIT; type: biochemical; conditions: 1 mM ATP
T3 construct: GST
Description: as §1
For example for KDR, cKIT, FLT1, CSF1R and FTL3, purified enzyme was mixed with 0.5 μM N-biotinylated substrate (Biotin-Ahx-[…]-amide (SEQ. ID. 1)), various concentrations of inhibitor in reaction buffer (50 mM HEPES, pH 7.1, 10 mM MgCl2, 2 mM MnCl2, 0.1% BSA and 1 mM DTT, 40 μL final volume), ATP (1 mM final conc.) in a black 384-well plate. After 60 minutes incubation at room temperature, the reaction was quenched by addition of a buffered EDTA solution (final approximate concentrations: 30 mM EDTA, 0.1% BSA, 0.1% Triton X-100 and 0.24M KF) and a solution of revelation agents (to give 0.084 ng/well streptavidin-XL-665 (Cis-Bio) and 6.5 ng/well antiphsophotyrosine mAb PT66-K Europium kryptate) was added to the reaction mixture. The quenched reaction was allowed to stand at room temperature for 3 hours and was then read in a time-resolved fluorescence detector (InVision, Perkin-Elmer) at 620 nm and 665 nm sequentially with excitation. The ratio between the signal of 620 nm and 665 nm was used in the calculation of the IC50.

[5] = target: T4, KDR (Homo sapiens, UniProt P35968); assay: HTRF in vitro kinase assay, KDR; type: biochemical; conditions: 1 mM ATP
T4 construct: KDR 789- 1354; His6 (N)
Description: as §1, §2

T3 sequence (P10721 544-976 limits assumed): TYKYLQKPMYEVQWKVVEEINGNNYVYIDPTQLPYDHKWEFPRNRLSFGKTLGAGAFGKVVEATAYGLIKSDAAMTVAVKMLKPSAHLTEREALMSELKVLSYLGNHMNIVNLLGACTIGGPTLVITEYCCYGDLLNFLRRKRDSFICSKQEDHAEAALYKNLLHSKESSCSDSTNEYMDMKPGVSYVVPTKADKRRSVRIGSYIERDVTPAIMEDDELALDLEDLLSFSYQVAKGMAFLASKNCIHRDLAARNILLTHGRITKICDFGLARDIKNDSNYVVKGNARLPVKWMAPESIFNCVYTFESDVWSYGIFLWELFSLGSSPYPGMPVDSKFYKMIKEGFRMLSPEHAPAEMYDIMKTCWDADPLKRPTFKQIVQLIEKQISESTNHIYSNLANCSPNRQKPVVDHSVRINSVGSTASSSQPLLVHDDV
T4 sequence (P35968 789-1354): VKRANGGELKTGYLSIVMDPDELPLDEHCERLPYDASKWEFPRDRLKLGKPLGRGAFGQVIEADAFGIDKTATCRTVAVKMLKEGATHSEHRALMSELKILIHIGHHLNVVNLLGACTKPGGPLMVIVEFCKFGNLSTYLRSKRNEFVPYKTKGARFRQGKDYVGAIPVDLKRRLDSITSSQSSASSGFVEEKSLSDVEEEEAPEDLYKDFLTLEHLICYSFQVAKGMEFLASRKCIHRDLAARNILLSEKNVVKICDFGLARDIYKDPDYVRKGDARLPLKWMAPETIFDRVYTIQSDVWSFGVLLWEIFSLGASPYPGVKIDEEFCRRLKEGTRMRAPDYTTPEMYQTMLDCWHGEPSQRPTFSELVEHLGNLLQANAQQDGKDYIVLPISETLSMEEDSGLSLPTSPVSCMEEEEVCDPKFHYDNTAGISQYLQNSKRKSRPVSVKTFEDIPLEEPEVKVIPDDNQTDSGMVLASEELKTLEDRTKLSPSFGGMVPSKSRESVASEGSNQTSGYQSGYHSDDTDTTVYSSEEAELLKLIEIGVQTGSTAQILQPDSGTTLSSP

IC50 [1]: 58 nM
solubility [2]: 8400 µg/mL (≈ 19.5 mM)
IC50 [3]: 2 nM
IC50 [4]: 6 nM
IC50 [5]: 2 nM
Structure (SMILES): CNC(=O)c1cnc(N)c2c(-c3ccc(NC(=O)Nc4cccc(C)c4)cc3)csc12 [Example 2, 4-amino-N-methyl-3-(4-{[(3-methylphenyl)carbamoyl]amino}phenyl)thieno[3,2-c]pyridine-7-carboxamide]
